{
  "source": "patent US7943611B2",
  "about": "“Imidazo[1,2-A]pyridin-3-yl-acetic acid hydrazides, processes, for their preparation and pharmaceutical uses thereof” (Ferrer International, S.A., priority 2006, dated 2011)",
  "key": {"[1]": {"tested_on": "spontaneous motor activity in mice", "test": "In vivo predictive sedation-hypnosis test (spontaneous motor activity, traveled distance)", "design": "species or system mouse", "details": "for % Motor activity inhibition: male CD1 mice, single equimolecular intraperitoneal dose, traveled distance vs control over 30 min (first 5 min discarded); for ID50 inhibiting spontaneous motor activity: dose-response curve, intraperitoneal", "protocol": "b) In Vivo Determination of Predictive Sedative-Hypnotic Action\nThe in vivo effects of these compounds were assessed by a predictive sedation-hypnosis test in mice (D. J. Sanger et al., Eur. J. Pharmacol., 313, 35-42, 1996; and G. Griebel et al., Psychopharmacology, 146, 205-213, 1999).\nGroups of 5-8 male CD1 mice, weighing 22-26 g at the time of test, were used. The test compounds were administered in single equimolecular intraperitoneal doses, suspended in 0.25% agar with one drop of Tween in a volume of 10 mL/kg. Control animals received the vehicle alone. Using a Smart System (Panlab, S. L., Spain) the traveled distance in cm was recorded for each mouse at 5 min intervals during a period of 30 minutes after dosing. The inhibition percentage traveled distance of treated animals versus control animals (the first 5 min were discarded) was calculated."}, "[2]": {"molecular_target": "T1, α1-subunit of the GABAA receptor (Rattus norvegicus, UniProt P62813)", "T1 construct": "the cerebellum (tissue that mostly contains α1-GABAA receptor); from tissue; host or cells: rat cerebellum membranes", "test": "Ligand-binding assay, radiolabeled flumazenil competition, cerebellum membranes", "details": "1 nM radiolabeled flumazenil; for inhibition at 10 µM: 10^−5 M test compound, read-out: % Inhib 10^−5M (affinity for the α1-subunit of the GABAA receptor); for inhibition at 0.1 µM: 10^−7 M test compound, read-out: % Inhib 10^−7M (affinity for the α1-subunit of the GABAA receptor)", "protocol": "(§1) a) Ligand-Binding Assays. Determination of the Affinity of Test Compounds for α1- and α2-GABAA Receptor\n(§2) Male Sprague-Dawley rats weighing 200-250 g at the time of experiment were used. After decapitation of the animal, the cerebellum (tissue that mostly contains α1-GABAA receptor) and spinal cord (tissue that mostly contains α2-GABAA receptor) were removed. The membranes were prepared according to the method by J. Lameh et al. (Prog. Neuro-Psychopharmacol. Biol. Psychiatry, 24, 979-991, 2000) and H. Noguchi et al. (Eur J Pharm, 434, 21-28, 2002) with slight modifications. Once the tissues weighed, they were suspended in 50 mM Tris.HCl (pH 7.4), 1:40 (v/v), or sucrose 0.32 M in the case of spinal cord, homogenized and then centrifuged at 20,000 g for 10 min at 7° C. The resulting pellet was resuspended under the same conditions and centrifuged again. The pellet was finally resuspended on a minimum volume and kept at −80° C. overnight. On the next day, the process was repeated until the final pellet was resuspended at a ratio of 1:10 (v/v) in the case of cerebellum and at a ratio of 1:5 (v/v) in the case of spinal cord.\n(§3) Affinity was determined by competitive tests using radiolabeled flumazenil as ligand. The tests were performed according to the methods described by S. Arbilla et al. (Eur. J. Pharmacol., 130, 257-263, 1986); and Y. Wu et al. (Eur. J. Pharmacol., 278, 125-132, 1995) using 96-well microtiter plates. The membranes containing the study receptors, flumazenil (radiolabeling at a final concentration of 1 nM) and ascending concentrations of test compounds (in a total volume of 230 μl in 50 mM [pH 7.4] Tris.HCl buffer) were incubated. Simultaneously, the membranes were only incubated with the radiolabeled flumazenil (total binding, 100%) and in the presence of an elevated concentration of unradiolabeled flumazenil (non-specific binding, % estimation of radiolabeled ligand). The reactions started on adding the radiolabeled ligand followed by incubation for 60 minutes at 4° C. At the end of the incubation period, 200 μl of reaction were transferred to a multiscreen plate (Millipore) and filtered using a vacuum manifold and then washed three times with cold test buffer. The multiscreen plates were equipped with a GF/B filter that retained the membranes containing the receptors and the radiolabeled ligand which had been bound to the receptors. After washing, the plates were left till dry. Once dried, scintillation liquid was added and left under stirring overnight. The next day the plates were counted using a Perkin-Elmer Microbeta scintillation counter.\n(§4) For analysis of the results the percentage of specific binding for every concentration of test compound was calculated as follows: % specific binding=(X−N/T−N)×100 where, • X: amount of bound ligand for every concentration of compound. • T: total binding, maximum amount bound to the radiolabeled ligand. • N: non-specific binding, amount of radiolabeled ligand bound in a non-specific way irrespective of the receptor used.\n(§5) Every concentrations of compound were tested in triplicate and their mean values were used to determine the experimental values of % specific binding versus the concentration of compound. Affinity data are expressed as % inhibition at 10^−5 M and 10^−7 M concentrations."}, "[3]": {"tested_on": "α2-subunit of the GABAA receptor", "test": "Ligand-binding assay, radiolabeled flumazenil competition, spinal cord membranes", "details": "rat spinal cord membranes, 1 nM radiolabeled flumazenil; for % Inhib 10^−5M (affinity for the α2-subunit of the GABAA receptor): 10^−5 M test compound; for % Inhib 10^−7M (affinity for the α2-subunit of the GABAA receptor): 10^−7 M test compound", "protocol": "as §1, §2, §3, §4, §5"}},
  "data": [
    {"smiles": "Cc1ccc(-c2nc3ccc(C)cn3c2CC(=O)NN)cc1", "note": "[Example 3, (6-Methyl-2-p-tolyl-imidazo[1,2-a]pyridin-3-yl)-acetic Acid Hydrazide]", "values": [
      {"measurement": "% Motor activity inhibition", "setting": "[1]", "result": 92.03, "unit": "%"},
      {"measurement": "ID50 inhibiting spontaneous motor activity", "setting": "[1]; mice", "result": 1.9, "unit": "µmol/kg"},
      {"measurement": "fold greater potency in inhibiting spontaneous motor activity compared to zolpidem", "setting": "[1]; mice, from ID50 values", "result": 2, "unit": "fold"},
      {"measurement": "inhibition at 10 µM", "setting": "[2]", "result": 98.7, "unit": "%"},
      {"measurement": "inhibition at 0.1 µM", "setting": "[2]", "result": 55.9, "unit": "%"}
    ]},
    {"smiles": "Cc1ccc(-c2nc3ccc(C)cn3c2CC(=O)N(C)N)cc1", "note": "[Example 6, (6-Methyl-2-p-tolyl-imidazo[1,2-a]pyridin-3-yl)-acetic Acid N-methyl-hydrazide]", "values": [
      {"measurement": "% Inhib 10^−5M (affinity for the α2-subunit of the GABAA receptor)", "setting": "[3]", "result": 71.6, "unit": "%"},
      {"measurement": "% Inhib 10^−7M (affinity for the α2-subunit of the GABAA receptor)", "setting": "[3]", "result": 2.0, "unit": "%"},
      {"measurement": "% Motor activity inhibition", "setting": "[1]", "result": 93.42, "unit": "%"},
      {"measurement": "inhibition at 10 µM", "setting": "[2]", "result": 99, "unit": "%"},
      {"measurement": "inhibition at 0.1 µM", "setting": "[2]", "result": 59.1, "unit": "%"}
    ]},
    {"smiles": "Cc1ccc(-c2nc3ccc(C)cn3c2CC(=O)N/N=C/c2ccc(Cl)cc2)cc1", "note": "[Example 7, (6-Methyl-2-p-tolyl-imidazo[1,2-a]pyridin-3-yl)-acetic Acid (4-chlorobenzylidene)-hydrazide]", "values": [
      {"measurement": "% Motor activity inhibition", "setting": "[1]", "result": 25.05, "unit": "%"},
      {"measurement": "inhibition at 10 µM", "setting": "[2]", "result": 46.1, "unit": "%"},
      {"measurement": "inhibition at 0.1 µM", "setting": "[2]", "result": 0.9, "unit": "%"}
    ]},
    {"smiles": "C/C=N/NC(=O)Cc1c(-c2ccc(C)cc2)nc2ccc(C)cn12", "note": "[Example 8, (6-Methyl-2-p-tolyl-imidazo[1,2-a]pyridin-3-yl)-acetic Acid Ethylidene-hydrazide]", "values": [
      {"measurement": "% Inhib 10^−5M (affinity for the α2-subunit of the GABAA receptor)", "setting": "[3]", "result": 88.6, "unit": "%"},
      {"measurement": "% Inhib 10^−7M (affinity for the α2-subunit of the GABAA receptor)", "setting": "[3]", "result": 11.2, "unit": "%"},
      {"measurement": "% Motor activity inhibition", "setting": "[1]", "result": 90.16, "unit": "%"},
      {"measurement": "inhibition at 10 µM", "setting": "[2]", "result": 97.6, "unit": "%"},
      {"measurement": "inhibition at 0.1 µM", "setting": "[2]", "result": 25.2, "unit": "%"}
    ]},
    {"smiles": "CC(C)=NNC(=O)Cc1c(-c2ccc(C)cc2)nc2ccc(C)cn12", "note": "[Example 9, (6-Methyl-2-p-tolyl-imidazo[1,2-a]pyridin-3-yl)-acetic acid isopropylidene-hydrazide]", "values": [
      {"measurement": "% Inhib 10^−5M (affinity for the α2-subunit of the GABAA receptor)", "setting": "[3]", "result": 86.6, "unit": "%"},
      {"measurement": "% Inhib 10^−7M (affinity for the α2-subunit of the GABAA receptor)", "setting": "[3]", "result": 21.9, "unit": "%"},
      {"measurement": "% Motor activity inhibition", "setting": "[1]", "result": 92.03, "unit": "%"},
      {"measurement": "inhibition at 10 µM", "setting": "[2]", "result": 98.5, "unit": "%"},
      {"measurement": "inhibition at 0.1 µM", "setting": "[2]", "result": 24.2, "unit": "%"}
    ]},
    {"smiles": "Cc1ccc(-c2nc3ccc(C)cn3c2CC(=O)N(C)C)cc1", "note": "[Zolpidem, N,N,6-trimethyl-2-p-tolylimidazo[1,2-a]pyridine-3-acetamide, reference compound]", "values": [
      {"measurement": "% Inhib 10^−5M (affinity for the α2-subunit of the GABAA receptor)", "setting": "[3]", "result": 74.1, "unit": "%"},
      {"measurement": "% Inhib 10^−7M (affinity for the α2-subunit of the GABAA receptor)", "setting": "[3]", "result": 19.9, "unit": "%"},
      {"measurement": "% Motor activity inhibition", "setting": "[1]", "result": 91.70, "unit": "%"},
      {"measurement": "ID50 inhibiting spontaneous motor activity", "setting": "[1]; mice", "result": 4.4, "unit": "µmol/kg"},
      {"measurement": "inhibition at 10 µM", "setting": "[2]", "result": 73.6, "unit": "%"}
    ]}
  ]
}
